What was measured:
[1] = system: Colo-205 cells; assay: Colo-205 tumor cell proliferation, CCK-8, 72 hours; assay type: cell-based
[2] = Liver microsomal metabolic stability, dog; assay type: in vitro ADME; details: liver microsomes, 0.5 mg/mL microsomes, 1 μM compound, NADPH, read-out: Liver microsomal stability T1/2
Procedure: (§1) The reaction was stopped with tinidazole-containing acetonitrile at 0 min, 5 min, 10 min and 30 min, respectively. After vortexing for 10 min and centrifuging at 15,000 rmp for 10 min, 50 μL of the supernatant was injected into a 96-well plate. The metabolic stability of the compound was calculated by determining the relative reduction of the drug, calculated as half-life T1/2.

[3] = Liver microsomal metabolic stability, human; assay type: in vitro ADME; details: liver microsomes, 0.5 mg/mL microsomes, 1 μM compound, NADPH, read-out: Liver microsomal stability T1/2
Procedure: as §1

[4] = Liver microsomal stability, comparisons in words across species; assay type: in vitro ADME; details: different species; versus the comparative compounds
Procedure: as §1

[5] = system: Colo-205 transplanted tumor; assay: Growth inhibition of nude mice Colo-205 transplanted tumor; assay type: in vivo

IC50 ([1]; Homo sapiens, COLO 205, 72 hours, CCK-8, numeric values, read-out: Colo-205 IC50): 3.8 nM
half-life at 1 μM [2]: 73 min
half-life at 1 μM [3]: 14 min
stability of different kinds of liver microsomes (in words) [4]: significant advantages
Compound: COc1cc(F)cc([C@@H](CO)NC(=O)[C@@H](C)N2Cc3ccc(-c4nc(NC5CCOCC5)ncc4F)c(F)c3C2=O)c1 [Embodiment 40]
cell proliferation inhibitory activity (in words) ([1]; Colo-205): strong cell proliferation inhibitory activity
T/C ([5]; 25 mg/kg, bidx21, po): 7.2%
Initial weight (D0) ([5]; 25 mg/kg, bidx21, po): 19.5 g
Terminal weight (D21) ([5]; 25 mg/kg, bidx21, po): 21.0 g
Initial tumor volume ([5]; 25 mg/kg, bidx21, po): 97 ± 26 mm^3
Terminal tumor volume ([5]; 25 mg/kg, bidx21, po): 67 ± 14 mm^3
T/C ([5]; 50 mg/kg, qdx21, po): 23.2%
Initial weight (D0) ([5]; 50 mg/kg, qdx21, po): 21.4 g
Terminal weight (D21) ([5]; 50 mg/kg, qdx21, po): 23.2 g
Initial tumor volume ([5]; 50 mg/kg, qdx21, po): 98 ± 22 mm^3
Terminal tumor volume ([5]; 50 mg/kg, qdx21, po): 238 ± 130 mm^3
effect on the tumor weight (in words) ([5]; dose of 50 mg/kg or 25 mg/kg): no significant effect on the tumor weight
tumor growth of Colo-205 transplanted tumor nude mice (in words) ([5]; dose of 50 mg/kg or 25 mg/kg): significantly inhibited the tumor growth
